Test results as given in PMC6882465, “Towards discovery of new leishmanicidal scaffolds able to inhibit Leishmania GSK-3” (Journal of Enzyme Inhibition and Medicinal Chemistry, 2019).
Where two headings read alike, the source gives them in different places. Each block holds one molecule with its values, some of them ahead of it.

Assays:
[1] = tested on: L. infantum promastigotes; experiment: Leishmanicidal assay on promastigotes (inhibition of MTT reduction); type: cell-based, Leishmania infantum; conditions: 72 h
Description: (§1) Leishmania parasites were resuspended with the corresponding drug concentration at 2 × 10^6 parasites/mL (final concentration) in their respective growth media in 96 microwell plates (200 µL/well). The parasites were allowed to growth for 72 h at 26 °C for promastigotes and 96 h at 32 °C for axenic amastigotes. Afterwards, inhibition of proliferation was measured by the inhibition of MTT reduction by the parasites. […] MTT reduction was allowed to proceed for 2 h at the respective temperature, and the resulting formazan solubilised by addition of 50 µL/well of 10% SDS. Afterwards, the plate was read at 595 nm in a BioRad Microplate-reader, model 680. Samples were made by triplicate and assays were repeated at least twice.

[2] = tested on: L. pifanoi axenic amastigotes; experiment: Leishmanicidal assay on axenic amastigotes (inhibition of MTT reduction); type: cell-based, Leishmania pifanoi; conditions: 96 h, read-out: L. pifanoi amast. ax EC50
Description: as §1

[3] = tested on: peritoneal murine macrophages (PMM); experiment: Cytotoxicity on peritoneal murine macrophages (MTT); type: cell-based, Balb/c mice; conditions: 48 h
Description: Peritoneal murine macrophages were obtained from 8-week-old Balb/c mice previously elicited by i.p. injection with 1 mL of 10% thioglycollate medium three days prior to extraction. Macrophages were obtained by peritoneal washing (10 mL PBS, 4 °C). After extraction, macrophages were maintained in RPMI 1640-HIFCS at 37 °C and 5% CO2.
For peritoneal macrophages, the cells were seeded in 96 microwell plates at 1 × 10^5 cells/well and incubated (37 °C, 5% CO2) with the drug for 48 h. The toxicity was evaluated by the inhibition of MTT reduction as above.

[4] = molecular target: LdGSK-3 (Leishmania donovani, UniProt A6N857); experiment: Inhibition of LdGSK-3 with Kinase Glo; type: biochemical; conditions: for LdGSK-3 % inhibition: @10 µM; for % inhibition @ 10µM (initial screening on LdGSK3): Table S2; for percentage of inhibition of LdGSK-3: assayed at 10 µM
Chain of LdGSK-3 (A6N857 entry or part of it): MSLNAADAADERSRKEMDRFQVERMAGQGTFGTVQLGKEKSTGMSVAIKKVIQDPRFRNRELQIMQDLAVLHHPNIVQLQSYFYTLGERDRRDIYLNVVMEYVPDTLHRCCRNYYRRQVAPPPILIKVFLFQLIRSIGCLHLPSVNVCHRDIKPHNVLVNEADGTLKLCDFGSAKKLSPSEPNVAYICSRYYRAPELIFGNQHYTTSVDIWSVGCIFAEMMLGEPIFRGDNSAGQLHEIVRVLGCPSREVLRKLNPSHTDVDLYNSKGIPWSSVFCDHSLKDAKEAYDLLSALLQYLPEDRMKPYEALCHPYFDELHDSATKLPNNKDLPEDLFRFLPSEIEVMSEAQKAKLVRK
Description: Assessment of inhibition of LdGSK-3 with Kinase Glo^TM
The reaction was allowed to proceed for 30 min at 30 °C, then it was incubated at room temperature for another 10 min after addition of Kinase Glo reagents (Promega, Ref. V6712). ATP consumption by LdGSK-3 was measured indirectly through end-point luminescence measurement of each well in a Varioskan Flash microplate reader (Thermo).

[5] = molecular target: hGSK-3β (Homo sapiens, UniProt P49841); experiment: hGSK-3β inhibition; type: biochemical
Chain of hGSK-3β (P49841 whole entry): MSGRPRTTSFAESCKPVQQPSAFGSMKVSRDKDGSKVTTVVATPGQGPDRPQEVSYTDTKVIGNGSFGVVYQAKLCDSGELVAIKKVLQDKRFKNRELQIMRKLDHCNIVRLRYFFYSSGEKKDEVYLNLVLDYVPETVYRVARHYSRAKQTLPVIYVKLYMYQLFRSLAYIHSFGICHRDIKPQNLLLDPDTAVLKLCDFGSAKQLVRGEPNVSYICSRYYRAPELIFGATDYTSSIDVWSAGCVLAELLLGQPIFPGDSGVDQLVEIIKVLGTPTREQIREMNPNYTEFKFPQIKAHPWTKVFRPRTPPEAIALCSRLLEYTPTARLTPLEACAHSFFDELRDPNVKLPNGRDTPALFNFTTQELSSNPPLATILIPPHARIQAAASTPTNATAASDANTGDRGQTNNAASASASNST

[6] = Table S1, read-out: LdGSK-3 IC50
[7] = Table 2, read-out: LdGSK-3 IC50

Structure (SMILES): O=c1sn(-c2cccc3ccccc23)c(=O)n1Cc1ccccc1 [Compound 2, tideglusib]
EC50 ([1]; Leishmania infantum, Table 1): 17.6 ± 2.3 µM | EC50 ([2]; Leishmania pifanoi, Table 1): 7.1 ± 1.8 µM | EC50 ([3]; Mus musculus, Macrophage, Table 1): > 50 µM | IC50 [4]: 0.32 ± 0.05 µM

Structure (SMILES): O=C(CCl)c1ccc(Cl)cc1 [Compound 7]
EC50 ([1]; Table S1): 6.6 ± 0.5 µM | EC50 ([2]; Table S1): 0.5 ± 0.1 µM | EC50 ([3]; Table S1): 7.3 ± 1 µM | IC50 [4, 6]: 7.5 ± 1.4 µM

Structure (SMILES): O=C(CCl)c1cc(Br)c(Br)s1 [Compound 10]
EC50 ([1]; Table S1): 8.6 ± 0.3 µM | EC50 ([2]; Table S1): 1.2 ± 0.2 µM | EC50 ([3]; Table S1): 7.9 ± 0.6 µM | IC50 [4, 6]: 3 ± 0.4 µM

LdGSK-3 % inhibition ([4]; Table S1): < 20%
Structure (SMILES): COc1ccc(CNC(=O)Nc2nc(C)c(C(C)=O)s2)cc1 [Compound 18]
EC50 ([1]; Table S1): > 50 µM | EC50 ([2]; Table S1): > 50 µM

IC50 ([5]; Table S1, reference not given): 6.22 ± 0.2 µM | LdGSK-3 % inhibition ([4]; Table S1): < 20%
Structure (SMILES): COc1ccc(CNC(=O)Nc2nc(C)c(C(=O)C(Br)Br)s2)cc1 [Compound 20]
EC50 ([1]; Table S1): > 50 µM | EC50 ([2]; Table S1): > 50 µM

IC50 ([5]; Table S1, reference not given): 7.23 ± 0.26 µM | LdGSK-3 % inhibition ([4]; Table S1): < 20%
Structure (SMILES): CCOC(=O)c1sc(NC(=O)CCc2cccc(Cl)c2)nc1C [Compound 21]
EC50 ([1]; Table S1): > 50 µM | EC50 ([2]; Table S1): > 50 µM

IC50 ([5]; Table S1, reference not given): 7.04 ± 0.27 µM | LdGSK-3 % inhibition ([4]; Table S1): < 20%
Structure (SMILES): CCOC(=O)c1sc(NC(=O)CCc2cc(OC)c(OC)c(OC)c2)nc1C [Compound 22]
EC50 ([1]; Table S1): > 50 µM | EC50 ([2]; Table S1): > 50 µM

IC50 ([5]; Table S1, reference not given): 9.75 ± 0.26 µM | LdGSK-3 % inhibition ([4]; Table S1): < 20%
Structure (SMILES): O=C(Cc1cccc(Cl)c1)Nc1nc2ccc(C(F)(F)F)cc2s1 [Compound 23]
EC50 ([1]; Table S1): > 50 µM | EC50 ([2]; Table S1): > 50 µM

IC50 ([5]; Table S1, reference not given): 7.33 ± 0.15 µM | LdGSK-3 % inhibition ([4]; Table S1): < 20%
Structure (SMILES): COc1cccc(CC(=O)Nc2nc3ccc(OC)cc3s2)c1 [Compound 24]
EC50 ([1]; Table S1): > 50 µM | EC50 ([2]; Table S1): > 50 µM

IC50 ([5]; Table 2): 1.23 ± 0.14 µM | IC50 [4, 7]: 3.6 µM | % inhibition @ 10µM (initial screening on LdGSK3) [4]: 74.63±1.76% | percentage of inhibition of LdGSK-3 [4]: higher than 50%
Structure (SMILES): CN(C)S(=O)(=O)c1ccc(-c2cnc(N)c(-c3nc4ccc(F)cc4[nH]3)c2)cc1 [Compound 71]

IC50 ([5]; Table 2): 1.4 ± 0.25 µM | IC50 [4, 7]: 0.46 ± 0.07 µM | % inhibition @ 10µM (initial screening on LdGSK3) [4]: 90.25±1.12% | percentage of inhibition of LdGSK-3 [4]: higher than 50%
Structure (SMILES): COc1ccc(Nc2nccc(N(C)c3n[nH]c4c(F)cccc34)n2)cc1S(C)(=O)=O [Compound 95]

IC50 ([5]; Table 2): 0.24 ± 0.04 µM | IC50 [4, 7]: 0.27 µM | % inhibition @ 10µM (initial screening on LdGSK3) [4]: 100.29±1.24% | percentage of inhibition of LdGSK-3 [4]: higher than 50%
Structure (SMILES): CN(C)Cc1cccc(Nc2nccc(-c3ccc(NCCN)c(C#N)c3)n2)c1 [Compound 119]

IC50 ([5]; Table 2): 0.81 ± 0.34 µM | IC50 [4, 7]: 6 µM | % inhibition @ 10µM (initial screening on LdGSK3) [4]: 70.59±3.12% | percentage of inhibition of LdGSK-3 [4]: higher than 50%
Structure (SMILES): Cc1ccc(S(C)(=O)=O)cc1Nc1nccc(-c2sc(N)nc2-c2ccccc2)n1 [Compound 124]

IC50 ([5]; Table 2): 1.32 ± 0.35 µM | IC50 [4, 7]: 1.7 µM | % inhibition @ 10µM (initial screening on LdGSK3) [4]: 99.46±0.78% | percentage of inhibition of LdGSK-3 [4]: higher than 50%
Structure (SMILES): N#Cc1cc(-c2ccnc(Nc3cccc(CN4CCOCC4)c3)n2)ccc1NCCN [Compound 128]

IC50 ([5]; Table 2): 0.02 ± 0.01 µM | IC50 [4, 7]: 2.54 ± 0.48 µM | % inhibition @ 10µM (initial screening on LdGSK3) [4]: 61.89±2.34% | percentage of inhibition of LdGSK-3 [4]: higher than 50%
Structure (SMILES): O=S(=O)(c1cccc(CSc2nnc(-c3ccc4c(c3)OCO4)o2)c1)N1CCOCC1 [Compound 151]

% inhibition @ 10µM (initial screening on LdGSK3) [4]: 16.65±1.70%
Structure (SMILES): COc1ccc(S(=O)(=O)Nc2ccc(C(=O)Nc3nc(-c4ccccn4)cs3)cc2)cc1 [Compound 175]

% inhibition @ 10µM (initial screening on LdGSK3) [4]: 8.55±1.75%
Structure (SMILES): COc1cc(Cl)c(C)cc1NC(=O)c1ccc([N+](=O)[O-])s1 [Compound 176]

% inhibition @ 10µM (initial screening on LdGSK3) [4]: 17.70±1.20%
Structure (SMILES): Nc1nc(-c2ccccn2)nc(-n2nc(-c3ccccc3)cc2N)n1.O=C(O)C(F)(F)F.O=C(O)C(F)(F)F.O=C(O)C(F)(F)F.O=C(O)C(F)(F)F.O=C(O)C(F)(F)F.O=C(O)C(F)(F)F.O=C(O)C(F)(F)F.O=C(O)C(F)(F)F [Compound 177]

% inhibition @ 10µM (initial screening on LdGSK3) [4]: 28.65±1.95%
Structure (SMILES): O=C(CCc1ccc(-c2ccccc2)o1)N1CCN(c2ccc(O)cc2)CC1 [Compound 178]

Structure (SMILES): COc1cc(C2SCC(=O)Nc3c2c(C)nn3-c2nc3ccccc3s2)cc(OC)c1O (centres unmarked) [Compound 179]
% inhibition @ 10µM (initial screening on LdGSK3) [4]: 29.35±2.80%

% inhibition @ 10µM (initial screening on LdGSK3) [4]: 17.50±3.45%
Structure (SMILES): O=C(COc1nn(-c2ccccc2)c2ncccc12)NCc1ccccc1 [Compound 180]

% inhibition @ 10µM (initial screening on LdGSK3) [4]: 5.90±2.90%
Structure (SMILES): CC(C)(C)c1csc(NC(=O)c2ccc([N+](=O)[O-])s2)n1 [Compound 181]

% inhibition @ 10µM (initial screening on LdGSK3) [4]: 9.60±1.20%
Structure (SMILES): CCN(Cc1nc2ccc(C(=O)N3CCN(c4ncccn4)CC3)cc2[nH]1)C1CCCc2cccnc21 (centres unmarked) [Compound 182]

% inhibition @ 10µM (initial screening on LdGSK3) [4]: 14.80±2.25%
Structure (SMILES): COc1ccc2ncc(Cl)c(CCN3CC[C@H](NCc4cc5c(cn4)OCS5)[C@@H](O)C3)c2n1 [Compound 183]

% inhibition @ 10µM (initial screening on LdGSK3) [4]: 53.23±3.29% | percentage of inhibition of LdGSK-3 [4]: higher than 50%
Structure (SMILES): O=C(CSc1nnc(-c2ccc3c(c2)OCO3)o1)N(Cc1ccco1)CC(F)(F)F [Compound 184]

% inhibition @ 10µM (initial screening on LdGSK3) [4]: 1.70±0.75%
Structure (SMILES): O=C(Nc1ccc(C(F)(F)F)cc1)Nc1cccc([N+](=O)[O-])c1 [Compound 185]
